Measured values as given in US20220395553A1, “CXCR4 ANTAGONIST PEPTIDES” (COHBAR, INC., priority 2019, published 2022).
Peptide text beside a SMILES is read from it.

Target: human CXCR4 (Homo sapiens, UniProt P61073)
Experiment: CXCR4/CXCL12 binding, HTRF format, single concentration (Example 23)
Design: host or cells: HEK293 (Tag-lite CXCR4 cells, frozen aliquots, transient expression)
Conditions: 15 nM CXCR4R fluorescent probe, 3 hours, HEK293 Tag-lite CXCR4 cells
Procedure, shortened: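 Tag-lite CXCR4 cells were exposed to peptide at 400 nM final with 15 nM (EC80) fluorescent CXCR4 probe for 3 h at room temperature. HTRF was read, and the 665/620 nm ratio ×10,000 measured probe bound to terbium-labelled receptor.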

Chain of human CXCR4 (P61073 whole entry): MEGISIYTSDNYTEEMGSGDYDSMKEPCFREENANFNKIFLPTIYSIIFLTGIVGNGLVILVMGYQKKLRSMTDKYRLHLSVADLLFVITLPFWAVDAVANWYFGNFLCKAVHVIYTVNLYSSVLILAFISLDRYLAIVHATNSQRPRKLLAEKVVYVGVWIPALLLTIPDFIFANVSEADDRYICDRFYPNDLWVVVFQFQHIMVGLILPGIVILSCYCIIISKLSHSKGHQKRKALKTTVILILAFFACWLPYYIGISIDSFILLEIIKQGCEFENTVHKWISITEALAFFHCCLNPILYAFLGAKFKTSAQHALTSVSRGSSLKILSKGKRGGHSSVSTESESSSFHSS

CC(C)C[C@H](NC(=O)[C@H](CO)NC(=O)[C@H](CO)NC(=O)[C@H](CCCNC(=N)N)NC(=O)[C@@H](NC(=O)[C@H](CO)NC(=O)[C@H](Cc1c[nH]cn1)NC(=O)[C@H](Cc1c[nH]cn1)NC(=O)[C@H](Cc1ccc(O)cc1)NC(=O)[C@H](CCCNC(=N)N)NC(=O)[C@H](CCC(=O)O)NC(=O)[C@@H](N)CC(C)C)C(C)C)C(=O)N[C@@H](CCCNC(=N)N)C(=O)N1CCC[C@H]1C(=O)N[C@@H](Cc1ccc(O)cc1)C(=O)N[C@H](C(=O)N[C@@H](CCCCN)C(=O)O)[C@@H](C)O [compound 4] (H-LERYHHSVRSSLRPYTK-OH; N-terminus and C-terminus assumed)
Percent Inhibition of CXCR4/CXCL12 Binding (400 nM peptide): 88%
